# Experimental data from patent US20100120690A1, “Polypeptides Having Antimicrobial Activity and Polynucleotides Encoding Same” (Novozymes Adenium Biotech A/S, priority 2005, published 2010).
# Test system: Staphylococcus carnosus ATCC51365
# Test: Yeast screening assay: radial diffusion assay of yeast supernatants
# Format: cell-based
# Design: key: An activity of 3 is better than Plectasin; An activity of 2 corresponds to the activity of Plectasin; 1 is worse than Plectasin
# Conditions: yeast supernatant, clearing zone in radial diffusion assay
# In short: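 Supernatants from S. cerevisiae expressing plectasin variants, grown 3 days at 30 °C in galactose medium, were applied to agarose containing 5×10^5 cfu/mL S. carnosus. Plates were incubated 3 h at 37 °C, overlaid, left overnight and MTT-stained. Clearing zones were scored as 2 = plectasin-like, 3 = better, 1 = worse.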
sequence,measurement,value
"GFGCNGPWDEDDMQCHNHCKSIKGYKGGYCAKGGFVCKCY (listed as Pseudoplectania nigrella) [wildtype, wildtype plectasin, parent antimicrobial polypeptide, reference compound]",Activity (antimicrobial activity relative to the activity of plectasin),2
